Holding throughout (type): cell-based, human
Data set [1] has as its system BT-20 breast cancer cells. Briefly: Immunofluorescence (anti-α-tubulin / toto-3) morphology, BT-20. The conditions noted are these: 25 μM, 48-72 hr. Here is the method: In some experiments, immunofluorescence was used to examine the morphologic features of vanadocene-treated cancer cells. At the end of the indicated treatment period, cells were washed twice with PBS and fixed in 2% paraformaldehyde. The cells were permeabilized and non-specific binding sites were blocked with 2.5% BSA in PBS containing 0.1% Triton X-100 for 30 min. Tubulin expression was examined by immunofluorescence using a monoclonal antibody against α-tubulin (Sigma Chemical Co, St. Louis, Mo.) at a dilution of 1:1000 and an anti-mouse IgG conjugated to FITC. Cells were washed in PBS and counterstained with toto-3 (Molecular Probes Inc., Eugene, Oreg.) for 10 min at a dilution of 1:1000. Cells were washed again with PBS and the coverslips were mounted with Vectashield (Vector Labs, Burlingame, Calif.) and viewed with a confocal microscope (Bio-Rad MRC 1024) mounted in a Nikon Labhophot upright microscope. Digital images were saved on a Jaz disk and processed with Adobe Photoshop software (Adobe Systems, Mountain View, Calif.).

The test system of data set [2] is Tera-2 testicular cancer cells. The experiment in a line: MTT cytotoxicity assay of vanadocenes, TERA-2 cells. The note with it: 24 h, 1.9-250 μM. In short, it runs like this: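 Cells seeded in triplicate, after 24 h exposed to two-fold serial dilutions of vanadocenes (1.9–250 μM; DMSO vehicle, 0.25% DMSO control) for 24 h. MTT added for 4 h at 37 °C, formazan dissolved in SDS/HCl overnight, OD read at 540 nm; IC50 values reported.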

Data set [3] concerns NALM-6 B-lineage acute lymphoblastic leukemia cells. The experiment in a line: MTT cytotoxicity assay of vanadocenes, NALM-6 cells. The note with it: 24 h. The method, then: Human testicular cancer cell lines, Tera-2 (embryonal carcinoma) and Ntera-2 (pluripotent embryonal carcinoma) were obtained from the American Type Culture Collection (ATCC) (Rockeville, Md.) and propagated in T-25, T-75, or T-150 cm^2 tissue culture flasks (Corning Corp., Corning, N.Y.) in McCoy's 5A medium and Dulbecco's modified Eagle's medium respectively. Both media were supplemented with 10% fetal calf serum (FCS), 4 mM glutamine, 100 U/ml penicillin G, and […] streptomycin sulfate. All tissue culture reagents were obtained from Life Technologies Inc. (GIBCO-BRL), Gaithersburg, Md. Cell lines were cultivated for a minimum of two passages after thawing prior to experimentation. Other cell lines that were used in this study were the human B-lineage acute lymphoblastic leukemia (ALL) cell line NALM-6. Uckun, F. M., Evans, W. E., Forsyth, C. J., Waddick, K. G., Tuel-Ahlgren, L., Chelstrom, L. M., Burkhardt, A., Bolen, J., Myers, D. E. Biotherapy of B-cell precursor leukemia by targeting genistein to CD19-associated tyrosine kinase. Science (Washington DC) 267:886–91, 1995; T-lineage ALL cell line MOLT-3, Waurzyniak, B., Shneider, E. A., Tumer, N., Yanishevski, Y., Gunther, R., Chelstrom, L., Wendorf, H., Myers, D. E., Irvin, J. D., Messinger, Y., Ek, O., Zeren, T., Chandan-Langlie, M., Evans, W. E., Uckun, F. M. In vivo toxicity, pharmacokinetics, and antileukemic activity of TXU (anti-CD7)-pokeweed antiviral protein immunotoxin. Clinical Cancer Research 3:881–890, 1997; AML cell line HL-60, Perentesis, J. P., Waddick, K. G., Bendel, A. E., Shao, Y., Warman, B. E., Chandan-Langlie, M., and Uckun, F. M. Induction of apoptosis in multi-drug resistant andradiation-resistant acute myeloid leukemia cells by a recombinant fusion toxin directed against the granulocyte macrophage colony stimulating factor receptor. Clin. Cancer Res. 3:347–355, 1997; breast cancer cell lines MDA-MB-231 and BT-20, Uckun, F. M., Narla, R. K., Jun, X., Zeren, T., Venkatachalam, T., Waddick, K. G., Rostostev, A., Myers, D. E. Cytotoxic activity of EGF-genstein against breast cancer cells. Clin. Cancer Res. 4:901–912, 1998; glioblastoma cell lines U87 and U373, Narla, R. K., Liu, X., Myers, D. E., and Uckun, F. M. 4-(3′-Bromo-4′hydroxylphenyl)-amino-6,7-dimethoxyquinazoline (WHI-P154): A novel quinazoline derivative with potent cytotoxic activity against human glioblastoma cells. Clin. Cancer Res. 4:1405–1414, 1998.
MTT (3-[4,5-dimethyl thiazol-2-yl]-2,5-diphenyltetrazolium bromide)-based colorimetric assays were used for evaluation of the cytotoxicity of vanadocene compounds. Mosmann, T. Rapid colorimetric assay for cellular growth and survival: application to proliferation and cytotoxicity assays. J. Immunol. Methods, 65: 55–63, 1983. Briefly, cells were harvested with 0.125% (w/v) trypsin-0.02% EDTA (GIBCO-BRL) from exponential-phase maintenance cultures and centrifuged (300 g×5 min). After suspension and counting, cells were dispensed within triplicate 96-well tissue culture plates in 100 μl volumes. After 24 h incubation, the culture medium was discarded and replaced with 100 μl of fresh medium containing serial two-fold dilutions of drugs in medium to yield 1.9 μM to 250 μM. All compounds were reconstituted in DMSO to a concentration of 100 mM, and the stock solution was made fresh for each experiment. Control wells consisted of medium containing 0.25% of DMSO alone were used for solvent control. […]

The subject of a further data set is HL-60 cells. Briefly: MTT cytotoxicity assay of oxovanadium(IV) compounds, HL-60. The note with it: 48 hr. In short, it runs like this: (§1)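 Exponentially growing cells, 4×10^4 cells/well, were exposed to compound at 0.1 to 250 μM for 48 hours at 37° C in 5% CO2, in triplicate wells. MTT (0.5 mg/ml final) was added for 4 hours, formazan dissolved overnight in 10% SDS/0.01 M HCl and read at 540 nm. IC50 came from non-linear regression.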
(Formazan colour is commonly taken as a measure of viable cells.)

The test system of a further data set is U373 glioblastoma cells. Briefly: Cytotoxic activity of oxovanadium(IV) compounds, U373. The conditions noted are these: read-out: Cytotoxic Activity U373. In short, it runs like this:
as §1

Consider two compounds from patent publication US7091351B2, “Vanadium compounds for treating cancer” (Parker Hughes Institute, priority 1998, dated 2006).

Several values for one entry are separate records, joined by “and”; a condition that tells them apart may be missing. Identical values can stand only once.

As to `[Cl-].[Cl-].[V+4].c1cc[cH-]c1.c1cc[cH-]c1` [VDC, VCp2Cl2], in data set [1], the “morphological features of BT-20 cells” value is “complete disruption of microtubules”. For the same compound, the IC50 is 80.6 µM and 81 µM in data set [2]; 19 µM in data set [3].

Regarding “bis(4,7-dimethyl-1,10-phenanthroline)sulfatooxovanadium(IV) [Compound 29]”, the results for the IC50 in the data set on HL-60 cells and with U373 glioblastoma cells were 0.98 ± 0.1 µM and 1.8 µM, respectively.
